Measured values from patent publication US20260234165A1, “MACROCYCLIC COMPOUNDS, PREPARATION METHOD THEREFOR, AND USE THEREOF” (GENFLEET THERAPEUTICS (SHANGHAI) INC., priority 2004, published 2026).
Where two headings read alike, the source gives them in different places.

Assays:
[1] = Pharmacokinetic study in rats; type: in vivo, Sprague-Dawley (SD) rats; details: male SD rats; for clearance / CL: IV, dose 1 mg/kg; for AUC / Cmax: PO (intragastric), dose 10 mg/kg
Excerpt: A total of 6 healthy adult male Sprague-Dawley (SD) rats were provided by Zhejiang Vital River Laboratory Animal Technology Co., Ltd. For each test compound, 6 healthy adult male SD rats were selected and randomly divided into 2 groups: an intravenous administration (IV) group and an intragastric administration (PO) group. The LC-MS/MS method was used to determine the drug concentrations in the plasma of rats at different time points after intravenous and intragastric administration of the test compounds. This experiment was intended to investigate the pharmacokinetic performance of the test compounds in rats and to evaluate the pharmacokinetic characteristics. Each drug used in the experiment was prepared from the test compound powder: An appropriate amount of test compound powder was weighed out, and appropriate amounts of DMSO, a 10% aqueous Solutol HS 15 solution, and a 6% aqueous HP-β-CD solution were sequentially added according to a volume ratio of 5:10:85. The mixture was vortexed and sonicated until clarification. The final concentration of the drug in the IV group was 0.5 mg/mL, and the final concentration of the drug in the PO group was 1 mg/mL; the concentrations could be adjusted according to actual needs. For the drug in the PO group of Z504, an appropriate amount of test compound powder was weighed out, and an appropriate amount of 0.5% MC+0.2% Tween 80 aqueous solution was added. The mixture was well mixed by vortexing to give a 1 mg/mL homogeneous suspension: the concentration could be adjusted according to actual needs.
All experimental rats were fasted overnight, and food intake was resumed 4 h after administration. For the rats in the IV group, the administration volume was set at 2 mL/kg, with Z554 and Z915 administered at a dose of 0.5 mg/kg and the other compounds at a dose of 1 mg/kg. For the rats in the PO group, the administration volume was 10 mL/kg and the dose was 10 mg/kg. The administration amount was adjusted according to the body weight of the rats on the day of administration. In the experiment, blood samples were collected from the rats in the IV group at multiple time points (0.0833 h, 0.25 h, 0.5 h, 1 h, 2 h, 4 h, 7 h, and 24 h) after administration, while blood samples were collected from the PO group at 0.25 h, 0.5 h, 1 h, 2 h, 4 h, 7 h, and 24 h after administration, with approximately 100 μL collected each time via the orbital blood collection method.
The blood samples were placed in centrifuge tubes containing EDTA-K2 and centrifuged at 8000 rpm for 4 min within 30 min to separate the supernatant plasma. The resulting plasma samples were stored at −20° C. for later use. For sample analysis, 20 μL of each of plasma samples and calibration standards was added to a 96-well plate, and 160 μL of acetonitrile containing 100 ng/mL tolbutamide was added. The samples were vortexed for 5 min for uniform mixing, and then centrifuged at 4000 rpm for 15 min. After the centrifugation was completed, 50 μL of supernatant was added to a 96-well plate containing 150 μL of deionized water. The plate was then sealed and shaken for uniform mixing. Sample analysis was performed by LC-MS/MS.
The sampling volume could be adjusted according to actual needs, but the final concentration should be kept unchanged.

[2] = tested on: p-ERK in NCI-H441 cells (KRAS G12V mutation); assay: Cell p-ERK assay (HTRF) in NCI-H441 cells; type: cell-based, human; details: NCI-H441 cells, 3 h compound incubation, HTRF p-ERK T202/Y204, read-out: H441 p-ERK IC50
How it was run: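 In this cellular format, endogenous KRAS-mutant lines grown in RPMI-1640 plus 10% FBS received graded compound concentrations for 3 h at 37 °C. Lysates were incubated 4 h with the phospho-T202/Y204 ERK HTRF antibody pair, and percent inhibition relative to DMSO and blank wells was curve-fitted to give IC50.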

[3] = Sprague-Dawley, rat, plasma, read-out: AUC
[4] = Sprague-Dawley, rat, plasma, read-out: Cmax

SMILES	clearance ([1]; Sprague-Dawley, rat, plasma) [mL/min/kg]	AUC [1, 3] [ng·h/mL]	Cmax [1, 4] [ng/mL]	IC50 ([2]; Homo sapiens, NCI-H441, 3 h) [nM]	CL [1] [mL/min/kg]	AUC [1] [ng·h/mL]	Cmax [1] [ng/mL]	IC50 [2] [nM]
CCn1c(-c2cc(C#CCN(C)CCOC)cnc2[C@H](C)OC)c2c3cc(ccc31)-c1csc(n1)C[C@H](NC(=O)[C@H]1[C@H](C)[C@@H]1C)C(=O)N1CCC[C@H](N1)C(=O)OCC(C)(C)C2 (atropisomer, axis not shown; (Ra)) [Compound Z788]					3.58	8529	2110	0.19
CCO[C@@H](C)c1ncc(N2CCN(CCS(C)(=O)=O)CC2)cc1-c1c2c3cc(ccc3n1CC)-c1csc(n1)C[C@H](NC(=O)[C@H]1[C@H](C)[C@@H]1C)C(=O)N1CCC[C@H](N1)C(=O)OCC1(CC1)C2 (single isomer, unassigned) [Compound Z378-1]				4.64				
CCn1c(-c2cc(C#CCN3C4CCC3COC4)cnc2[C@H](C)OC)c2c3cc(ccc31)-c1csc(n1)C[C@H](NC(=O)[C@H]1[C@H](C)[C@@H]1C)C(=O)N1CCC[C@H](N1)C(=O)OCC(C)(C)C2 (atropisomer, axis not shown; (Ra)) [Compound Z711, (1r,2R,3S)—N-((6^3S,4S,Z)—(Ra)-1^2-(5-(3-(3-oxa-8-azabicyclo[3.2.1]octan-8-yl)prop-1-yn-1-yl)-2-((S)-1-methoxyethyl)pyridin-3-yl)-1^1-ethyl-10,10-dimethyl-5,7-dioxo-6^1,6^2,6^3,6^4,6^5,6^6-hexahydro-1^1H-8-oxa-2(4,2)-thiazola-1(5,3)-indola-6(1,3)-pyridazinacycloundecaphane-4-yl)-2,3-dimethylcyclopropane-1-carboxamide]					3.82	8876	1867	0.23
CCn1c(-c2cc(C#CCN3CCN(C)C(=O)C3)cnc2[C@H](C)OC)c2c3cc(ccc31)-c1csc(n1)C[C@H](NC(=O)[C@H]1[C@H](C)[C@@H]1C)C(=O)N1CCC[C@H](N1)C(=O)OCC(C)(C)C2 (atropisomer, axis not shown; (Ra)) [Compound Z793]	3.16	5920	2040	0.09				
CO[C@@H](C)c1ncc(C#CCN2CCCOCC2)cc1-c1c2c3cc(ccc3n1CC(F)(F)F)-c1csc(n1)C[C@H](NC(=O)[C@H]1[C@H](C)[C@@H]1C)C(=O)N1CCC[C@H](N1)C(=O)OCC(C)(C)C2 (atropisomer, axis not shown; (Ra)) [Compound Z700, N-((6^3S,4S,Z)-1^1-(2,2,2-trifluoroethyl)-(Ra)-1^2-(2-((S)-1-methoxyethyl)-(5-(3-(1,4-oxazepan-4-yl)prop-1-yn-1-yl))-pyridin-3-yl)-10,10-dimethyl-5,7-dioxo-6^1,6^2,6^3,6^4,6^5,6^6-hexahydro-1^1H-8-oxa-2(4,2)-thiazola-1(5,3)-indola-6(1,3)-pyridazinacycloundecaphane-4-yl)-2,3-dimethylcyclopropane-1-carboxamide]					7.66	3259	681	0.2
CCn1c(-c2cc(N3CCN4CC5(CC5)OC[C@@H]4C3)cnc2[C@H](C)OC)c2c3cc(ccc31)-c1csc(n1)C[C@H](NC(=O)[C@H]1[C@H](C)[C@@H]1C)C(=O)N1CCC[C@H](N1)C(=O)OCC1(CC1)C2 (atropisomer, axis not shown; (Ra)) [Compound Z13]				0.88				
CCn1c(-c2cc(N3CCN(CCS(C)(=O)=O)CC3)cnc2[C@H](C)OC)c2c3cc(ccc31)-c1csc(n1)C[C@H](NC(=O)[C@H]1[C@H](C)[C@@H]1C)C(=O)N1CCC[C@H](N1)C(=O)OCC1(CC1)C2 (single isomer, unassigned) [Compound Z367]				2.1				

Now from value to molecule:

clearance ([1]; Sprague-Dawley, rat, plasma) [mL/min/kg]	AUC [1, 3] [ng·h/mL]	Cmax [1, 4] [ng/mL]	IC50 ([2]; Homo sapiens, NCI-H441, 3 h) [nM]	CL [1] [mL/min/kg]	AUC [1] [ng·h/mL]	Cmax [1] [ng/mL]	IC50 [2] [nM]	SMILES
0.41	2540	427	0.74					CCn1c(-c2cc(C#CCN3CCS(=O)(=O)CC3)cnc2[C@H](C)OC)c2c3cc(ccc31)-c1csc(n1)C[C@H](Nc1nnc3cc(C)ccn13)C(=O)N1CCC[C@H](N1)C(=O)OCC(C)(C)C2 (atropisomer, axis not shown; (Ra)) [Compound Z911, (6^3S,4S,Z)—(Ra)-1^2-(5-(3-(1,1-dioxidothiomorpholino)prop-1-yn-1-yl)-2-((S)-1-methoxyethyl)pyridin-3-yl)-1^1-ethyl-10,10-dimethyl-4-((7-methyl-[1,2,4]triazolo[4,3-a]pyridin-3-yl)amino)-6^1,6^2,6^3,6^4,6^5,6^6-hexahydro-1^1H-8-oxa-2(4,2)-thiazola-1(5,3)-indola-6(1.3)-pyridazinacycloundecaphane-5,7-dione]
				14.9	1643	401	0.08	CCn1c(-c2cc(C#CCN3CCOC[C@H]3C)cnc2[C@H](C)OC)c2c3cc(ccc31)-c1csc(n1)C[C@H](NC(=O)[C@H]1[C@H](C)[C@@H]1C)C(=O)N1CCCC(N1)C(=O)OCC(C)(C)C2 (atropisomer, axis not shown; (Ra)) [Compound Z813]
2.51	3900	1400	0.15					CCn1c(-c2cc(C#CCN3CCS(=O)(=O)CC3)cnc2[C@H](C)OC)c2c3cc(ccc31)-c1csc(n1)C[C@H](NC(=O)[C@H]1[C@H](C)[C@@H]1C)C(=O)N1CCC[C@H](N1)C(=O)OCC(C)(C)C2 (atropisomer, axis not shown; (Ra)) [Compound Z838, (1r,2R,3S)—N-((6^3S,4S,Z)—(Ra)-1^2-(5-(3-(1,1-dioxidothiomorpholino)prop-1-yn-1-yl)-2-((S)-1-methoxyethyl)pyridin-3-yl)-1^1-ethyl-10,10-dimethyl-5,7-dioxo-6^1,6^2,6^3,6^4,6^5,6^6-hexahydro-1^1H-8-oxa-2(4,2)-thiazola-1(5,3)-indola-6(1,3)-pyridazinacycloundecaphane-4-yl)-2,3-dimethylcyclopropane-1-carboxamide]
				1.14	29002	4303	0.21	CCn1c(-c2cc(C#CCN3CCCOCC3)cnc2C(C)C)c2c3cc(ccc31)-c1csc(n1)C[C@H](NC(=O)[C@H]1[C@H](C)[C@@H]1C)C(=O)N1CCC[C@H](N1)C(=O)OCC(C)(C)C2 (atropisomer, axis not shown; (Sa)) [Compound Z811-2, (1r,2R,3S)—N-((6^3S,4S,Z)—(Sa)-1-(5-(3-(1,4-oxazepan-4-yl)prop-1-yn-1-yl)-2-isopropylpyridin-3-yl)-1^1-ethyl-10,10-dimethyl-5,7-dioxo-6^1,6^2,6^3,6^4,6^5,6^6-hexahydro-1^1H-8-oxa-2(4,2)-thiazola-1(5,3)-indola-6(1,3)-pyridazinacycloundecaphane-4-yl)-2,3-dimethylcyclopropane-1-carboxamide]
			0.4					CCn1c(-c2cc(C#CCN3CCCN(C)CC3)cnc2[C@H](C)OC)c2c3cc(ccc31)-c1csc(n1)C[C@H](NC(=O)[C@H]1[C@H](C)[C@@H]1C)C(=O)N1CCC[C@H](N1)C(=O)OCC(C)(C)C2 (atropisomer, axis not shown; (Ra)) [Compound Z802, (1r,2R,3S)—N-((6^3S,4S,Z)-1^2-(5-(3-(4-methyl-1,4-diaza-1-yl)prop-1-yn-1-yl)-(Ra)-2-((S)-1-methoxyethyl)pyridin-3-yl)-1^1-ethyl-10,10-dimethyl-5,7-dioxo-6^1,6^2,6^3,6^4,6^5,6^6-hexahydro-1^1H-8-oxa-2(4,2)-thiazola-1(5,3)-indola-6(1,3)-pyridazinacycloundecaphane-4-yl)-2,3-dimethylcyclopropane-1-carboxamide]
